Measured values taken from the supplement of paper PMC10307832.

Columns and labels:
Assay in all cases: relative viability (nuclei count vs DMSO), 5 days (fraction); higher = more cells survive
201T = system: 201T
Method in brief: (§1)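 The day after seeding in 1536-well plates, lung cancer cell lines were treated by pin tool with a single drug, or with a fixed anchor-drug dose together with five library-drug doses (not always all listed) in √10 steps. After 5 days, a combined fix-and-stain solution (final 0.05% Triton X-100, 1% formaldehyde, 1 ug/ml Hoechst) was added. Nuclei counted on 4× images gave relative viability as treated counts over vehicle counts, reported as the median of duplicate plates.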

CAL-12T = system: CAL-12T
Method in brief: as §1

COR-L 105 = system: COR-L 105
Method in brief: as §1

EKVX = system: EKVX
Method in brief: as §1

EPLC-272H = system: EPLC-272H
Method in brief: as §1

H3255 = system: H3255
Method in brief: as §1

HCC-15 = system: HCC-15
Method in brief: as §1

HCC-827 = system: HCC-827
Method in brief: as §1

HOP-62 = system: HOP-62
Method in brief: as §1

LCLC-103H = system: LCLC-103H
Method in brief: as §1

NCI-H1355 = system: NCI-H1355
Method in brief: as §1

NCI-H1437 = system: NCI-H1437
Method in brief: as §1

NCI-H1755 = system: NCI-H1755
Method in brief: as §1

NCI-H1793 = system: NCI-H1793
Method in brief: as §1

NCI-H2009 = system: NCI-H2009
Method in brief: as §1

NCI-H322M = system: NCI-H322M
Method in brief: as §1

NCI-H441 = system: NCI-H441
Method in brief: as §1

NCI-H520 = system: NCI-H520
Method in brief: as §1

NCI-H596 = system: NCI-H596
Method in brief: as §1

NCI-H647 = system: NCI-H647
Method in brief: as §1

PC-3 [JPC-3] = system: PC-3 [JPC-3]
Method in brief: as §1

SK-LU-1 = system: SK-LU-1
Method in brief: as §1

UMC-11 = system: UMC-11
Method in brief: as §1

Compound: Nc1cccc2c1CN(C1CCC(=O)NC1=O)C2=O (stereo not drawn) [Lenalidomide] + COc1cc2c(Oc3ccc(NC(=O)C4(C(=O)Nc5ccc(F)cc5)CC4)cc3F)ccnc2cc1OCCCN1CCOCC1 [Foretinib] (partner 0.25 µM)
- relative viability (201T; first compound 0.253 µM): 1.08
- relative viability (201T; first compound 2.53 µM): 1.23
- relative viability (201T; first compound 8 µM): 1.13
- relative viability (CAL-12T; first compound 0.253 µM): 1.21
- relative viability (CAL-12T; first compound 0.8 µM): 1.22
- relative viability (CAL-12T; first compound 2.53 µM): 1.23
- relative viability (CAL-12T; first compound 8 µM): 1.29
- relative viability (COR-L 105; first compound 0.253 µM): 0.855
- relative viability (COR-L 105; first compound 0.8 µM): 0.822
- relative viability (COR-L 105; first compound 2.53 µM): 1.12
- relative viability (COR-L 105; first compound 8 µM): 1.16
- relative viability (EKVX; first compound 0.253 µM): 0.806
- relative viability (EKVX; first compound 0.8 µM): 0.772
- relative viability (EKVX; first compound 2.53 µM): 0.46
- relative viability (EKVX; first compound 8 µM): 0.932
- relative viability (EPLC-272H; first compound 0.253 µM): 0.795
- relative viability (EPLC-272H; first compound 0.8 µM): 0.658
- relative viability (EPLC-272H; first compound 2.53 µM): 0.681
- relative viability (EPLC-272H; first compound 8 µM): 0.549
- relative viability (H3255; first compound 0.253 µM): 0.733
- relative viability (H3255; first compound 0.8 µM): 0.825
- relative viability (H3255; first compound 2.53 µM): 0.95
- relative viability (H3255; first compound 8 µM): 0.727
- relative viability (HCC-15; first compound 0.253 µM): 1.03
- relative viability (HCC-15; first compound 0.8 µM): 1.04
- relative viability (HCC-15; first compound 2.53 µM): 1.17
- relative viability (HCC-15; first compound 8 µM): 1.05
- relative viability (HCC-827; first compound 0.253 µM): 1.03
- relative viability (HCC-827; first compound 0.8 µM): 1.05
- relative viability (HCC-827; first compound 2.53 µM): 1.01
- relative viability (HCC-827; first compound 8 µM): 1.04
- relative viability (HOP-62; first compound 0.253 µM): 0.989
- relative viability (HOP-62; first compound 0.8 µM): 1.03
- relative viability (HOP-62; first compound 2.53 µM): 1.28
- relative viability (HOP-62; first compound 8 µM): 1.2
- relative viability (LCLC-103H; first compound 0.253 µM): 0.761
- relative viability (LCLC-103H; first compound 0.8 µM): 0.806
- relative viability (LCLC-103H; first compound 2.53 µM): 0.888
- relative viability (LCLC-103H; first compound 8 µM): 0.682
- relative viability (NCI-H1355; first compound 0.253 µM): 0.973
- relative viability (NCI-H1355; first compound 2.53 µM): 0.901
- relative viability (NCI-H1355; first compound 8 µM): 0.808
- relative viability (NCI-H1437; first compound 0.253 µM): 1.34
- relative viability (NCI-H1437; first compound 0.8 µM): 1.25
- relative viability (NCI-H1437; first compound 2.53 µM): 1.32
- relative viability (NCI-H1437; first compound 8 µM): 1.46
- relative viability (NCI-H1755; first compound 0.253 µM): 0.915
- relative viability (NCI-H1755; first compound 0.8 µM): 0.904
- relative viability (NCI-H1755; first compound 2.53 µM): 0.886
- relative viability (NCI-H1755; first compound 8 µM): 0.782
- relative viability (NCI-H1793; first compound 0.253 µM): 0.706
- relative viability (NCI-H1793; first compound 2.53 µM): 1.04
- relative viability (NCI-H1793; first compound 8 µM): 0.655
- relative viability (NCI-H2009; first compound 0.253 µM): 1.24
- relative viability (NCI-H2009; first compound 0.8 µM): 1.23
- relative viability (NCI-H2009; first compound 2.53 µM): 1.32
- relative viability (NCI-H2009; first compound 8 µM): 1.22
- relative viability (NCI-H322M; first compound 0.253 µM): 0.962
- relative viability (NCI-H322M; first compound 0.8 µM): 1.05
- relative viability (NCI-H322M; first compound 2.53 µM): 1.11
- relative viability (NCI-H322M; first compound 8 µM): 0.902
- relative viability (NCI-H441; first compound 0.253 µM): 1
- relative viability (NCI-H441; first compound 0.8 µM): 0.722
- relative viability (NCI-H441; first compound 2.53 µM): 1.16
- relative viability (NCI-H441; first compound 8 µM): 0.795
- relative viability (NCI-H520; first compound 0.253 µM): 0.805
- relative viability (NCI-H520; first compound 0.8 µM): 0.627
- relative viability (NCI-H520; first compound 2.53 µM): 0.875
- relative viability (NCI-H520; first compound 8 µM): 0.711
- relative viability (NCI-H596; first compound 0.253 µM): 0.799
- relative viability (NCI-H596; first compound 2.53 µM): 0.908
- relative viability (NCI-H596; first compound 8 µM): 0.789
- relative viability (NCI-H647; first compound 0.253 µM): 0.856
- relative viability (NCI-H647; first compound 0.8 µM): 1.12
- relative viability (NCI-H647; first compound 2.53 µM): 1.21
- relative viability (NCI-H647; first compound 8 µM): 1.11
- relative viability (PC-3 [JPC-3]; first compound 0.253 µM): 1.06
- relative viability (PC-3 [JPC-3]; first compound 0.8 µM): 0.974
- relative viability (PC-3 [JPC-3]; first compound 2.53 µM): 1.17
- relative viability (PC-3 [JPC-3]; first compound 8 µM): 1.08
- relative viability (SK-LU-1; first compound 0.253 µM): 0.71
- relative viability (SK-LU-1; first compound 0.8 µM): 0.727
- relative viability (SK-LU-1; first compound 2.53 µM): 1.02
- relative viability (SK-LU-1; first compound 8 µM): 0.802
- relative viability (UMC-11; first compound 0.253 µM): 1.02
- relative viability (UMC-11; first compound 0.8 µM): 1.07
- relative viability (UMC-11; first compound 2.53 µM): 1.06
- relative viability (UMC-11; first compound 8 µM): 0.953
